{"source": "paper PMC10046562", "about": "“Computational Analysis and Experimental Testing of the Molecular Mode of Action of Gatastatin and Its Derivatives” (Cancers, 2023)", "target": "T1, α-β tubulin (β tubulin, porcine brain) (Sus scrofa, UniProt P02550+P02554)", "T1 construct": "α-β tubulin purified from porcine brains, labeled with RED-NHS; with α tubulin", "T1 sequence (P02554 whole entry)": "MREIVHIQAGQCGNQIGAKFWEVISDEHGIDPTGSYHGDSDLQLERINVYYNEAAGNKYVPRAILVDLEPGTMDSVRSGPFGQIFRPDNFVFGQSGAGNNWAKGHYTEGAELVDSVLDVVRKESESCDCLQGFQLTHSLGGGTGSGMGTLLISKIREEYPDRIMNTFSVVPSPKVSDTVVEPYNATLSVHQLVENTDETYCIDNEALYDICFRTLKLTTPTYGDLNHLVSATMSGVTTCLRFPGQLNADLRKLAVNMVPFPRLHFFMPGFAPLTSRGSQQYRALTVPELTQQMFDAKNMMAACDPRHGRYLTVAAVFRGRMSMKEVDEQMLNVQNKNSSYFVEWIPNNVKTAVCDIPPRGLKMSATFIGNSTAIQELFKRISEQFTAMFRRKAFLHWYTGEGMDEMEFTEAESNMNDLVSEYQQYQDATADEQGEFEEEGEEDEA", "T1 sequence (P02550 whole entry)": "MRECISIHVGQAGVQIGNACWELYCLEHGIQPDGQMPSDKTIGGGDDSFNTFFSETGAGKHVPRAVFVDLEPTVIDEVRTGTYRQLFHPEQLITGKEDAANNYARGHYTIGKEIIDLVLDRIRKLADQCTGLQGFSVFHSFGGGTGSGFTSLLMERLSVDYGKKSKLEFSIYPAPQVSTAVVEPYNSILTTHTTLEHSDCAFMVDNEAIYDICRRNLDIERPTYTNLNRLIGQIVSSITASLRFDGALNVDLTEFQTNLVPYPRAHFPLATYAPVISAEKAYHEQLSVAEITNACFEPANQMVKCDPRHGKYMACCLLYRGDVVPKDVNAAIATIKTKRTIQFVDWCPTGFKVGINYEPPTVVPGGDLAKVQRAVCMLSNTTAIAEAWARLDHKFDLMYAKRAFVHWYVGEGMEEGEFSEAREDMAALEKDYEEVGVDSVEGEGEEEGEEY", "assay": "microscale thermophoresis, labeled tubulin", "assay_type": "binding", "data": [{"molecule": "COc1cc2c(=O)c(-c3cc(OC)c4c(c3OC)OCO4)coc2cc1OCc1ccccc1", "note": "[gatastatin]", "values": [{"measurement": "Kd", "result": "2160 ± 470", "unit": "nM"}]}]}
